Here are results for 13 compounds from PubChem BioAssay (NCI).

Among the test systems are SK-MEL-2 melanoma; OVCAR-5 ovarian; OVCAR-4 ovarian; SF-295 CNS; HOP-92 NSCLC; SK-MEL-5 melanoma; MOLT-4 leukemia; RXF 393 renal; U251 CNS; SNB-75 CNS.
Holding throughout (assay): inhibition of tumour cell growth, NCI panel, 48 h

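Cells were grown in 96-well plates and exposed to each compound for 48 hours at five concentrations; endpoints were interpolated linearly between bracketing concentrations, or set to the highest concentration if not reached. TGI: total growth inhibition.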 *1 amine or outer side, *2 acyl side, *3 side chain or, on linkers, in order; H or OH if unused. Where a SMILES comes first, the peptide text is derived from it. [ ]: non-standard residue; d: D form. The star is where a group is joined. X31 = CC(=O)N(C)SCC(N[*:1])C(=O)[*:2]; X47 = CC(=O)N(C)SCC(N*)/C(O)=N\O; Cbz = O=C(OCc1ccccc1)*; Boc = CC(C)(C)OC(=O)*; Bz = O=C(c1ccccc1)*; Bn = c1ccc(C*)cc1; For = O=C*

Consider `CCOC(=O)CN1C(=O)c2c(c(C)n(-c3ccccc3)c2C)C1=O`, for which the TGI with SK-MEL-2 melanoma, in the assay with OVCAR-5 ovarian, in the assay with OVCAR-4 ovarian, with SF-295 CNS, with HOP-92 NSCLC and in the assay with SK-MEL-5 melanoma was greater than 100 µM throughout. The TGI in the assay with MOLT-4 leukemia, in the assay on RXF 393 renal, in the assay on U251 CNS and in the assay on SNB-75 CNS was greater than 100 µM in each case.

For `CN(C)c1ccc(/C=c2/c3ccccc3n3c2c2ccccc2[n+]3C)cc1`, the TGI in the assay with SK-MEL-2 melanoma was determined as 0.782 µM; in the assay with OVCAR-5 ovarian, 7.43 µM; in the assay on OVCAR-4 ovarian, 8.3 µM; in the assay with SF-295 CNS, 13.1 µM; in the assay on HOP-92 NSCLC, 1.92 µM; in the assay on SK-MEL-5 melanoma it was 0.659 µM. In addition, the TGI stood at 2.67 µM in the assay with MOLT-4 leukemia, 4.47 µM in the assay with RXF 393 renal, 1.46 µM with U251 CNS and 8.29 µM in the assay on SNB-75 CNS.

For the compound `CC1(C)[C@H](C(=O)O)N2C(=O)[C@@H](NS(=O)(=O)c3ccc([N+](=O)[O-])cc3)[C@H]2S1(=O)=O`, the TGI with SK-MEL-2 melanoma, in the assay on OVCAR-5 ovarian, with OVCAR-4 ovarian, in the assay on SF-295 CNS, with HOP-92 NSCLC and in the assay on SK-MEL-5 melanoma was greater than 100 µM each time. The TGI in the assay with MOLT-4 leukemia, in the assay on RXF 393 renal, in the assay on U251 CNS and in the assay on SNB-75 CNS was greater than 100 µM in each case.

On to `O=C(CN1CCN(Cc2ccccc2)CC1)c1ccc2[nH]c(=O)oc2c1`, for which the TGI in the assay with SK-MEL-2 melanoma, with OVCAR-5 ovarian, in the assay with OVCAR-4 ovarian, with SF-295 CNS, in the assay with HOP-92 NSCLC and in the assay on SK-MEL-5 melanoma was greater than 100 µM in each case. Besides, the TGI with MOLT-4 leukemia, with RXF 393 renal, in the assay on U251 CNS and with SNB-75 CNS was greater than 100 µM in each case.

Regarding `CCNC(C)Cc1ccccc1` (stereo not drawn), the TGI in the assay on SK-MEL-2 melanoma, in the assay with OVCAR-5 ovarian, in the assay on OVCAR-4 ovarian, in the assay with SF-295 CNS, in the assay on HOP-92 NSCLC and with SK-MEL-5 melanoma was greater than 100 µM in each case. For the same compound, the TGI with RXF 393 renal, with U251 CNS and with SNB-75 CNS was greater than 100 µM each time.

Consider `NCCSc1nc2ccccc2s1`, for which the TGI with SK-MEL-2 melanoma is 82.2 µM; in the assay with OVCAR-5 ovarian, greater than 100 µM; in the assay on OVCAR-4 ovarian it was greater than 100 µM; with SF-295 CNS, 73.2 µM; in the assay with HOP-92 NSCLC, 71 µM; with SK-MEL-5 melanoma, greater than 100 µM. In addition, the TGI was 94.8 µM in the assay with MOLT-4 leukemia, 77.9 µM with RXF 393 renal, 48.3 µM with U251 CNS and 62.1 µM with SNB-75 CNS.

Turning to `CC1=NCCN=C(C)C1N=Nc1ccc2nc(C)[nH]c2c1`, the TGI with SK-MEL-2 melanoma is 46.3 µM; with OVCAR-5 ovarian, 39.9 µM; with OVCAR-4 ovarian it was 30.6 µM; in the assay on SF-295 CNS it was 31.5 µM; with HOP-92 NSCLC, 22.5 µM; with MOLT-4 leukemia it was 23.6 µM. Besides, the TGI in the assay on RXF 393 renal is 40.1 µM; with U251 CNS it was greater than 100 µM; in the assay on SNB-75 CNS, 33.1 µM.

Consider `ClCCCN(CCCCl)c1ccc(C=Nc2cccc(Cl)c2)cc1`, for which the TGI in the assay with SK-MEL-2 melanoma was greater than 100 µM; in the assay on OVCAR-5 ovarian, greater than 91.4 µM; in the assay with OVCAR-4 ovarian it was greater than 79.5 µM; with SF-295 CNS it was greater than 82.4 µM; in the assay with HOP-92 NSCLC it was greater than 100 µM; in the assay on SK-MEL-5 melanoma, 36.7 µM. Moreover, the TGI in the assay on MOLT-4 leukemia was greater than 67.4 µM; in the assay on RXF 393 renal, greater than 52.7 µM; in the assay with U251 CNS, greater than 89.1 µM; in the assay on SNB-75 CNS, greater than 100 µM.

Regarding `CC(=O)N(C)SCC(NC(=O)C(Cc1ccccc1)NC(=O)OCc1ccccc1)C(=O)NC(Cc1ccccc1)C(=O)NC(Cc1cn(C=O)c2ccccc12)C(=O)NC(CCCCNC(=O)OCc1ccccc1)C(=O)NC(C(=O)NC(CSN(C)C(C)=O)/C(O)=N\O)C(C)OCc1ccccc1` (stereo not drawn) (Cbz-F[X31]FW(For)K(Cbz)T(Bn)-X47; configuration not given here), the TGI in the assay on SK-MEL-2 melanoma, with OVCAR-5 ovarian, in the assay on OVCAR-4 ovarian, in the assay with SF-295 CNS, with HOP-92 NSCLC and with SK-MEL-5 melanoma was greater than 100 µM in each case. Besides, the TGI in the assay with MOLT-4 leukemia, in the assay with RXF 393 renal, in the assay on U251 CNS and in the assay on SNB-75 CNS was greater than 100 µM each time.

With `COc1cc(C=O)ccc1Oc1nnnn1-c1ccccc1`, the TGI in the assay with SK-MEL-2 melanoma was greater than 100 µM; with OVCAR-5 ovarian, greater than 100 µM; with OVCAR-4 ovarian, greater than 100 µM; with SF-295 CNS, greater than 100 µM; in the assay with HOP-92 NSCLC, greater than 100 µM; with SK-MEL-5 melanoma, 59.2 µM. For the same compound, the TGI in the assay with MOLT-4 leukemia is 75.1 µM; in the assay on RXF 393 renal, greater than 100 µM; in the assay on U251 CNS it was greater than 100 µM; in the assay with SNB-75 CNS, greater than 100 µM.

In the case of `CC1(C)CCC[C@@]2(C)C1CCC1(C)C(CCc3ccoc3)/C(=C/OS(=O)(=O)O)CCC12` (stereo partly drawn) (tested in a mixture with another compound), the TGI was greater than 100 µM in the assay on SK-MEL-2 melanoma; greater than 100 µM with OVCAR-5 ovarian; greater than 100 µM in the assay with OVCAR-4 ovarian; greater than 100 µM in the assay with SF-295 CNS; 63.2 µM with HOP-92 NSCLC; greater than 100 µM in the assay with SK-MEL-5 melanoma. The TGI is 79.7 µM with MOLT-4 leukemia, greater than 100 µM in the assay with RXF 393 renal, greater than 100 µM in the assay on U251 CNS and greater than 100 µM in the assay with SNB-75 CNS.

In the case of `CC(NC(=O)C(Cc1ccc(OC(=O)c2ccccc2)cc1)NC(=O)OC(C)(C)C)C(=O)NC(Cc1ccccc1)C(=O)NCC(N)=O` (stereo not drawn) (Boc-Y(Bz)AFG-NH2; configuration not given here), the TGI with SK-MEL-2 melanoma came to 35.6 µM; in the assay on OVCAR-5 ovarian, 40.3 µM; in the assay with OVCAR-4 ovarian it was 47.2 µM; in the assay with SF-295 CNS, 40.1 µM; in the assay with HOP-92 NSCLC it was 50.9 µM; in the assay with SK-MEL-5 melanoma it was 81.7 µM. Also, the TGI with MOLT-4 leukemia was greater than 100 µM; in the assay with RXF 393 renal, 46.4 µM; in the assay with U251 CNS it was 35.1 µM; with SNB-75 CNS, 49.6 µM.

For the compound `CC(=O)OC1=c2ccccc2=C(O)C2C1C=NN2C(C)=O` (stereo not drawn), the TGI with SK-MEL-2 melanoma, with OVCAR-5 ovarian, in the assay with OVCAR-4 ovarian, in the assay with SF-295 CNS, with HOP-92 NSCLC and in the assay with SK-MEL-5 melanoma was greater than 100 µM throughout. In addition, the TGI with MOLT-4 leukemia, in the assay with RXF 393 renal, in the assay with U251 CNS and in the assay on SNB-75 CNS was greater than 100 µM in each case.
